US20260207580A1, “NITROXOLINE FOR USE IN THE TREATMENT OR PREVENTION OF A MALIGNANT PERIPHERAL NERVE SHEATH TUMOUR” (HEALX LTD, priority 2022, published 2026)

Key:
Type in all cases: cell-based
Nf1^−/− DNSCs [1] = test: DNSC proliferation and viability, CellTiter-Glo Assay; settings: cells Nf1−/−; 48 hrs incubation; serially diluted from 105 μM
Method: (§1) Nf1-Ink4a/Arf mutant DNSCs have increased cell cycle activity and proliferation in vitro, consistent with the in vivo phenotypes. The present study utilizes Nf1^−/− and Nf1^−/−; Ink4a/Arf^+/− mutant DNSCs obtained by transient infection of Nf1^flox/flox and Nf1^flox/flox; Ink4a/Arf^flox/+ DNSCs with an adenovirus carrying Cre recombinase. Selectivity of nitroxilone was compared between Nf1^−/− and Nf1^−/−; Ink4a/Arf^+/− DNSCs.
(§2) Nf1^−/− and Nf1^−/−; Ink4a/Arf^+/− DNSCs described above were treated with serially diluted nitroxoline starting from 105 μM and incubated for 48 hrs. After the incubation period, proliferation, viability and apoptosis assays were performed as described below: • DNSC proliferation and viability was assessed using the CellTiter-Glo Assay (Promega) which measures […]. […] After 10 minutes, the plates were read using a 96-well microplate luminometer. • To assess cellular apoptosis, the Caspase-Glo 3/7 kit (Promega) was utilized according to the manufacturer's instructions. […] After 10 minutes, plates were read using a 96 well luminometer to measure caspase 3/7 activity.

[2] = tested on: Nf1^−/−; Ink4a/Arf^+/− DNSCs; test: as above; settings: cells Nf1−/−, 48 hrs incubation, serially diluted from 105 μM
Method: as §1, §2

Nf1^−/− DNSCs [3] = test: Cellular apoptosis, Caspase-Glo 3/7 kit (caspase 3/7 activity); settings: nf1−/− cells; 48 hrs incubation; serially diluted from 105 μM
Method: as §1, §2

[4] = tested on: Nf1^−/−; Ink4a/Arf^+/− DNSCs; test: as above; settings: cells Nf1−/−, 48 hrs incubation, serially diluted from 105 μM
Method: as §1, §2

O=[N+]([O-])c1ccc(O)c2ncccc12 [Nitroxoline, 5-nitroquinolin-8-ol] was tested, and the “concentrations at which the antiproliferative effect was observed” value (Nf1^−/− DNSCs [1]) was “greater than 10 μM”, the “concentrations at which the antiproliferative effect was observed” value [2] was “greater than 3 μM” and the “concentrations at which the induction of apoptosis was evident” value (Nf1^−/− DNSCs [3]) was 30 to 100 µM. For the same compound, the “concentrations at which the induction of apoptosis was evident” value [4] was “greater than 10 μM”.
